Test results from publication PMC10135567, “New Indole-3-Propionic Acid and 5-Methoxy-Indole Carboxylic Acid Derived Hydrazone Hybrids as Multifunctional Neuroprotectors” (Antioxidants, 2023).

Tests used:
[1] = tested on: isolated rat-brain synaptosomes; test: 6-OHDA-induced neurotoxicity in isolated rat synaptosomes, GSH level; assay type: cell-based; conditions: 10 µM pre-incubation 30 min, then 150 µM 6-OHDA 1 h
Method: (§1) This neurotoxicity model was based on the metabolism and auto-oxidation of 6-hydroxy dopamine responsible for the reactive oxygen species and quinones generation, ultimately leading to neurotoxicity and neurodegeneration. The experiment was performed by pre-incubation of the synaptosomes with 10 µM of the compounds for 30 min, followed by the addition of 150 µM 6-hydroxy dopamine for induction of neurotoxicity. After 1 h, they were centrifuged twice for 1 min at 15,000 × g. After the second wash, the precipitates were resolved with buffer B and glucose.

[2] = Fe(II)-induced lipid peroxidation assay (LP assay, TBARS); assay type: biochemical; conditions: 90 µM, lecithin 1 mg/mL, 0.1 mM FeCl2; lower = stronger antioxidant
Method: (§2) The lipid peroxidation assay and a modification of the deoxyribose-degradation assay were used. Two types of measurement compositions in phosphate buffer (PB–K2HPO4/KH2PO4, pH 7.4) were prepared for both tests: (i) samples, containing the biologically relevant molecules (lecithin emulsion or deoxyribose), iron, and the tested hydrazones at the concentrations indicated below the figures; and (ii) controls, in which the tested hydrazones were omitted. The data for the sample activity were presented as a percentage of the control measurement.
The thiobarbituric-acid reactive-substance colorimetric test was performed in a model system of Fe(II)-induced lipid peroxidation as an emulsion prepared from egg yolk phospholipids. Each sample contained 1 mg/mL of lecithin. LP was initiated using 0.1 mM FeCl2. After 30 min incubation at 37 °C, 0.5 mL of 2.8% trichloroacetic acid solution and 0.5 mL of 0.5% thiobarbituric acid solution were added, following a second incubation at 100 °C for 20 min. Centrifugation at 3000 rpm for 20 min at 4 °C was performed, and we determined the absorbance value of the supernatant at 532 nm via Shimadzu UV-1601 UV-VIS spectrophotometer.

[3] = O-phenanthroline Fe(II) chelation test; assay type: physicochemical; conditions: 200 µM compound, FeCl2
Method: The Fe (II)-chelating activity of the tested hydrazones was determined by the O-phenanthroline method. A total of 1 mL sample solutions of 50 mM PB pH 7 contained 0.2 mM O-phenanthroline and 0.05 mM FeCl2 and 0.2 mM hydrazone. In the controls, the tested compounds were omitted. Absorbance was measured at 515 nm via GENESYS 50 UV-VIS spectrophotometer after incubation for 5 min at 37 °C. The data for the sample activity were presented as a percentage of the control measurement. Absorbance spectra of all the samples, the control, and the measurement compositions containing the tested hydrazones and Fe(II) at the concentrations used in the samples were measured.
To explain the results of both systems of Fe(II)-induced oxidative damage, we studied the potency of the tested compounds to chelate-iron (Fe(II)). This was studied by spectrophotometric determination of free iron (Fe(II)) using the ortho-phenanthroline test, as 1,10-phenantroline reacts rapidly with Fe(II) ions in weakly acidic media, generating an orange–red complex (ferroin) with characteristic absorbance spectra (molar absorptivity 1.10.104 (α = 0.20) at ~max 512 nm and a molar ratio 3:1 (R: Fe(II))). The generated complex was stable, and the bound Fe(II) was resistant to oxidation. Lower absorbance of the reaction mixture indicated higher Fe^2+-chelating activity.

[4] = tested on: isolated rat-brain synaptosomes; test: Synaptosomal viability (MTT), substances administered alone; conditions: 100 µM
Method: Preparation of the synaptosomes was carried out by multiple centrifugations using the Percoll gradient. Homogenization of the brains was performed in 10 volumes of cold buffer 1, which contained 5 mM HEPES and 0.32 M sucrose (pH = 7.4), followed by centrifugation at different speeds. For preparation of the gradient, the synaptosomes were isolated by Percoll reagent. Synaptosomes were resuspended and incubated in buffer 2, which contained 290 mM NaCl, 0.95 mM MgCl2x6H2O, 10 mM KCl, 2.4 mM CaCl2xH2O, 2.1 mM NaH2PO4, 44 mM HEPES, and 13 mM D-glucose. Incubations were performed in a 5% CO2 + 95% O2 atmosphere. The method of Lowry et al., using bovine serum albumin as a standard content, was applied for determination of synaptosomal protein [51].
Synaptosomal viability was monitored based on a (3-(4,5)-dimethylthiazol-2-yl)-2,5-diphenyl tetrazolium bromide) assay. After incubation with the compounds, synaptosomes were treated with 0.5 mg/mL solution of (3-(4,5)-dimethylthiazol-2-yl)-2,5-diphenyl tetrazolium bromide) for 10 min at […]. Then, the synaptosomes were centrifuged twice at 15,000× g for 1 min. The resulting formazan crystals were dissolved in DMSO (dimethyl sulfoxide), and the extinction was determined by spectrophotometric measurements at 580–660 nm. […]

[5] = Superoxide radical scavenging, xanthine/xanthine oxidase/NBT system; assay type: biochemical
Method: The 1 mL cuvette for the control contained 1 mM xanthine, 20 µL xanthine oxidase (100 IU/L), and 0.04 mM NBT [43, 44]. In the sample compositions, the tested hydrazones at different concentrations were added. All measurement compositions were incubated at 37 °C, and the absorbance was determined spectrophotometrically at 560 nm via Shimadzu UV-1601 UV-vis spectrophotometer.
The potential capability of the investigated compounds to prevent the superoxide-anion radical-induced NBT reduction was investigated spectrophotometrically by xanthine-oxidase assay. The assay was carried out at the final concentration of the tested compounds, at 1, 10, 50, and 100 µM.

[6] = molecular target: T1, recombinant human MAO-B (hMAO-B) (Homo sapiens, UniProt P27338); test: hMAO-B enzyme activity inhibition (Amplex Red fluorimetric assay); assay type: biochemical; conditions: 1 µM
T1 sequence (P27338 1-520): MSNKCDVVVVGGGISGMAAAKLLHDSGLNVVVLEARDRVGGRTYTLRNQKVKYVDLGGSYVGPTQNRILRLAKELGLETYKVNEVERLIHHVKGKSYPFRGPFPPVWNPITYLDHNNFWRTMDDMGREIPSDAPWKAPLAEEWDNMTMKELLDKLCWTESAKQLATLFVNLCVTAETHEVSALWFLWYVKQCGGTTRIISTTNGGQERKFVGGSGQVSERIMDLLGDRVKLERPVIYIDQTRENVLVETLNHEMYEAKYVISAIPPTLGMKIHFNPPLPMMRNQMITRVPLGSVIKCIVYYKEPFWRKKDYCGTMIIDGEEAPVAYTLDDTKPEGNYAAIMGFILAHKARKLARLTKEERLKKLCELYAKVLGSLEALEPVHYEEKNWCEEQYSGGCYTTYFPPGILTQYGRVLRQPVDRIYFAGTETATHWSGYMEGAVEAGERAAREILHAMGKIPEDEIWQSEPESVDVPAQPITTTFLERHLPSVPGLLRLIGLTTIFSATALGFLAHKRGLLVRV
Method: Amplex® UltraRed reagent [48] was used for detection of the hydrogen peroxide and peroxidase activity in biological samples and enzymes. In the presence of peroxidase, a red phosphorescent oxidation product, resorufin, was produced due to the 1:1 stoichiometric reaction of Amplex® Red with hydrogen peroxide. The analysis was conducted spectrophotometrically based on the high extinction coefficient of the color product. Using this method, small amounts of hydrogen peroxide (of the order of 10 pM in a volume of 100 µL) could be detected.
The following controls were used: pure MAO-B working solution in reaction buffer, MAO-B working solution containing hydrogen peroxide, and pure reaction buffer. The final concentration of the substances was 1 µM. […] At the end of the incubation period, the reaction was started by adding a 50 µL of a mix solution containing solutions of Amplex® Red reagent, horseradish peroxidase (HRP), and tyramine as a substrate for the enzyme in a reaction buffer, to each well on the 96-well plate.

[7] = tested on: isolated rat-brain synaptosomes; test: 6-OHDA-induced neurotoxicity in isolated rat synaptosomes, synaptosomal viability; assay type: cell-based; conditions: Rattus norvegicus; 10 µM pre-incubation 30 min, then 150 µM 6-OHDA 1 h; read-out: synaptosomal viability (SV) preserved, as compared to 6-OHDA
Method: as §1

[8] = MTT cell viability assay (cytotoxicity), SH-SY5Y; conditions: human, SH-SY5Y neuroblastoma cells
Method: Neuroblastoma cell line SH-SY5Y (94030304) was acquired from the European Collection of Cell Cultures (ECACC, Salisbury, UK). Cells were cultured in a medium prepared with RPMI basic media supplemented with 10% heat-inactivated FBS (fetal bovine serum), 2 mM L-glutamine, 1% antibiotics (penicillin/streptomycin), and incubated at 37 °C in a humidified atmosphere containing 5% of CO2. The culture’s medium was replaced at a time interval of 2–3 days.
(§3) Cell viability was assessed via the mitochondrial reductase-dependent reaction of (3-(4,5-dimethylthiazol-2-yl)- 2,5-diphenyl tetrazolium bromide (MTT, cat. no. 475989, Calbiochem, Merck KGaA, Darmstadt, Germany). The SH-SY5Y and bEnd3 cell lines were seeded in 96-well plates at a density of 0.7 × 10^4 (bEnd3) or 2 × 10^4 (SH-SY5Y) cells/well and allowed to adhere for 24 h at 37 °C, 5% CO2. Then, the cells were incubated with the compounds (1–500 μM) for a preset time (24 h). For the solvent, the control cells were treated with DMSO corresponding to the highest concentration of DMSO in the samples (0.5% DMSO) in order to exclude its cytotoxic effect on the cells. For each concentration, a set of at least 6 wells were used. After incubation, the solution from each well was exchanged with fresh culture medium (100 µL/well), containing the MTT reagent (0.5 mg/mL) and incubated for 3 h at 37 °C in a humidified atmosphere and 5% CO2. The obtained formazan crystals were dissolved in 100 µL/well of 5% formic acid in propan-2-ol solution (or DMSO). The absorbance was measured at 570 nm via multiplate reader Tecan Infinite F200 PRO (Tecan Trading AG., Männedorf, Switzerland) or Synergy 2 (BioTek Instruments, Inc., Highland Park, Winooski, VT, USA).
(§4) Both the SH-SY5Y and bEnd3 cells were treated with the test compounds in a concentration range from 1 to 500 µM for 24 h.

[9] = Fe(II)-induced deoxyribose degradation assay; assay type: biochemical; conditions: 80 µM, 2-deoxyribose 0.5 mM, 0.1 mM FeCl2; lower = stronger antioxidant
Method: as §2
The deoxyribose (0.5 mM) damage was induced by adding FeCl2 (0.1 mM). The measurement compositions were incubated at 37 °C for 30 min. The next step comprised adding 0.5 mL of 2.8% trichloroacetic acid and 0.5 mL of thiobarbituric acid. Then, the samples were heated in boiling water for 20 min, and their absorbance was estimated at 532 nm (characteristic band for the generated chromophore) via Shimadzu UV-1601 UV-vis spectrophotometer.

[10] = Stability by UV-vis measurements at different pH; assay type: physicochemical; conditions: 50 µM, pH 2, 4.5, 7.4 and 8.4, after 1, 2, 3 and 24 h
Method: The stability of the compounds was also considered a potential issue. Therefore, selected compounds (3a, 3d, 5d, and 5e at a concentration of 50 µM) were studied by UV-vis measurements under different pH conditions, including pH 2, 4.5, 7.4, and 8.4, to represent different physiological (gastric, intestinal, etc.) conditions.

[11] = MTT cell viability assay (cytotoxicity), bEnd3; assay type: cell-based, mouse; conditions: mouse, bEnd3 brain endothelial cells, 1–500 µM
Method: Mouse-brain endothelial cell line bEnd3 [36] (CRL-2299) was purchased from the American Type Culture Collection (ATCC, Manassas, VA, USA). The cells were cultured in DMEM (Dulbeco’s modified essential medium) (cat. no. 30-2002, ATCC, Manassas, VA, USA), supplemented with 10% heat-inactivated FBS (cat. no. F7524, Sigma-Aldrich Co. LLC, St. Louis, MO, USA), 1 mM L-glutamine (cat. no. G7513, Sigma-Aldrich Co. LLC, St. Louis, MO, USA) and 1× Antibiotic-Antimycotic solution (penicillin: streptomycin: amphotericin B (100 U/mL: 0.10 mg/mL: 0.25 µg/mL) (cat. no. A5955, Sigma-Aldrich Co. LLC, St. Louis, MO, USA) at 37 °C in a humidified atmosphere containing 5% CO2. The cells were passaged in 75 cm^2 flasks every 3–5 days via trypsinization (StableCell Trypsin solution, cat. no. T2610, Sigma-Aldrich Co. LLC, St. Louis, MO, USA).
as §3, §4

[12] = tested on: red blood cells; test: Red blood cell hemolysis assay; assay type: cell-based, rat; conditions: positive control, 20% Triton X-100, 1 h, 37 °C
Method: The potential of the test compounds to induce hemolysis was evaluated following the protocol described by Evans et al.. The blood was collected from the heart of male Wister rats. The red blood cells were separated from the blood by repeated centrifugation in 0.9% NaCl buffer and were resuspended in phosphate-buffered saline (PBS, pH 7.4). The test compounds in concentrations 10, 100, and 200 µM, a negative control (distilled water), and a positive control (20% Triton X-100) were pipetted into 96-well plates. Then, the erythrocyte suspension in PBS was added, and the plates were incubated for 1 h at 37 °C. After centrifugation (5 min at 500× g), the supernatant was transferred to new 96-well plates in order to measure hemoglobin absorbance at 430 nm on a Synergy 2 plate-reader (BioTek Instruments, Inc., Highland Park, Winooski, VT, USA). The obtained results were presented as a percentage of hemolysis relative to the hemoglobin absorbance values in the positive controls. Hemoglobin absorbance of negative controls was accepted as zero hemolysis. […]
Hemolysis assay, using red blood cells, is an essential part of the in vitro biocompatibility testing of new drug substances; and it was used as a screening method for the evaluation of potential in vivo toxicity. The release of hemoglobin was a definite sign of the cell lysis of the erythrocytes and could be measured spectrophotometrically. […]

Compound	GSH level preserved, as compared to 6-OHDA [1] [%]	absorbance ratio sample/control (lipid peroxidation) [2]	absorbance at 515 nm compared to the controls (Fe(II) chelation) [3]	reduction of synaptosomal viability (SV) vs. non-treated synaptosomes [4] [%]	absorbance ratio (NBT reduction, % of control) ([5]; 1, 10, 50 and 100 µM)	reduction of hMAO-B enzyme activity vs. pure hMAO-B [6] [%]	viability at 10 µM [7] [%]	IC50 at 24 h [8] [µM]	absorbance ratio, % of the controls (deoxyribose degradation) [9]	stability (UV-vis spectra over time) [10]	melting point [°C]	IC50 at 24 h [11] [µM]	decrease of NBT reduction as compared to the controls ([5]; 100 µM (highest tested concentration))	hemolysis [12] [%]
O=C(O)CCc1c[nH]c2ccccc12 [IPA, Indole-3-propionic acid]	50	further amelioration of the antioxidant properties was not observed, as compared to melatonin	statistically identical absorbance values at 515 nm, as compared to the controls	47	did not influence the estimated absorbance ratio at any of the tested concentrations	25	56	> 500						
O=C(CCc1c[nH]c2ccccc12)NN=Cc1cccc(O)c1O [Compound 3a, N′-(2,3-Dihydroxybenzylidene)-3-(1H-indol-3-yl)propanehydrazide]		around 30%	identical absorbance values, as compared to the controls				44	120	around 35%	stable over time	204 to 205	356	less than 15%	
Triton X-100														100
